Reference: paper PMC7377239, “Cardiovascular Effects of Polychlorinated Biphenyls and Their Major Metabolites” (Environmental Health Perspectives, 2020)
Where two headings read alike, the source gives them in different places.

Legend:
[1] = system: iCell endothelial cells (human iPSC-derived ECs); test: High-content imaging cytotoxicity in iCell endothelial cells, 24 h; assay type: cell-based; conditions: Homo sapiens, Endothelial cell, iPSC-EC, 24 hr; for viability at 0.1 µM / activity at 0.1 µM: 0.10 µM; for minimal effective concentration: top concentration 100.00 µM
Protocol: (§1) The culture conditions of iCell®-endothelial cells were as reported elsewhere ([Iwata et al. 2017]). Briefly, T75 flasks were coated with a fibronectin solution ( 3 μg/cm^2 ) followed by incubation for 1–2 h. Cells were thawed for 3 min in a 37°C water bath. Thawed cells were added to maintenance medium made of VascuLife VEGF Medium Complete Kit, excluding the supplied FBS, and iCell® Endothelial Cells Medium Supplement. The final formulation of the maintenance medium is detailed in ([Iwata et al. 2017]). The aliquoted fibronectin solution was aspirated from the T75 flasks, and cells were seeded at 1.0×10^4 cells/cm^2 . Cells were maintained at 37°C and 5% CO2 with media changes occurring every 2 d and passaged every 3–4 d using TrypLE™ Express. All experiments were conducted on cells between passages 1 and 5.
Cytotoxicity was assessed in parallel experiments. For iCell®-endothelial cells, 384-well plates were coated with a 30μg/mL fibronectin solution ( 10μL/well ) and incubated for 2 h at RT. iCell®-endothelial cells were dissociated with TrypLE™ Express and prepared into a solution to achieve 750 cells per well and 50μL of total volume. The fibronectin solution was removed from the 384-well plate, and cells were plated. For HUVECs, similar dissociation and the same cell density were used for plating with the exclusion of the fibronectin solution. Cells were incubated at 37°C and 5% CO2 until a monolayer was formed, typically 3–5 d. 2×PCB plates were created with the requisite maintenance medium. Before treatment, the medium in the wells was exchanged to 25μL/well of fresh maintenance medium. 2×PCB chemical solutions ( […] ) were added. After 24 h incubation at 37°C and 5% CO2 , cells were stained with Hoechst 33342, MitoTracker™ Orange, and calcein AM for 20 min before replacing the staining media with FluoroBright DMEM. Cell culture plates were imaged using the ImageXpress® Micro Confocal high-content imaging system (Molecular Devices). Images were acquired at 10× magnification with DAPI, TRITC, or FITC filter (Hoechst 33342, MitoTracker™, or calcein AM, respectively). The multiwavelength cell scoring applications module in MetaXpress™ (Molecular Devices) was used to analyze the images.
(§2) Phenotypic responses were quantitatively assessed using concentration–response modeling as detailed elsewhere ([Sirenko et al. 2017]). Briefly, phenotypic readouts were normalized to vehicle controls and fit to a four-parameter logistic model in R studio software (version 3.1.1; R Development Core Team). Following EPA guidance on dose–response modeling, a cutoff of one standard deviation across means of vehicle control (i.e., 0.5% vol/vol DMSO in cell culture media) wells was applied to determine the point-of-departure (POD) values ([U.S. EPA 2012]). In the absence of a concentration–response, the highest tested concentration (i.e., 100μM ) was assigned as “no observable adverse effect level.” The concentration–response assessment R script, as well as templates for vehicle and concentration–response data, are available as a supplement to Sirenko et al. ([2017]). The ability of physicochemical properties to predict differences in PODs were evaluated by multiregression and mixed-effects modeling using R.

[2] = system: iCell endothelial cells (human iPSC-derived ECs); test: Tube formation (tubulogenesis) assay in iCell endothelial cells, 18 h; assay type: cell-based; conditions: Homo sapiens, Endothelial cell, iPSC-EC tube formation, 18 hr; for activity at 0.1 µM: 0.10 µM; for minimal effective concentration: top concentration 100.00 µM
Protocol: as §1
Tube formation assays were performed on Geltrex™ LDEV-free reduced growth factor basement membrane using both iCell®-endothelial cells and HUVECs in 384-well format exactly as detailed in Iwata et al. ([2017]). Negative controls included media-only and vehicle control (i.e., 0.5% vol/vol DMSO in cell culture media) wells. Positive assay controls were consistent with previously published reports ([Iwata et al. 2017]) and included TAB ( 50μM ) as a cytotoxic control, and nocodazole ( 0.01–1μM ), suramin ( 0.5–50μM ), histamine ( 0.1–100μM ), and chloroquine ( 1–500μM ) as chemicals associated with specific effects on ECs. Each test chemical was screened in triplicate for each concentration. Briefly, for iCell®-endothelial cells, starvation media consisted of VascuLife® basal medium with 4 mM L-glutamine LifeFactor and 0.1% iCell®-endothelial cells medium supplement. To counter dilution effects, a 2× concentration of the HUVEC maintenance medium supplemented with additional VEGF was created (EGM™-2 BulletKits™ at 2× concentration; also the VEGF component was replaced with 12.5 ng/mL VEGF). Geltrex™ LDEV-free reduced growth factor basement membrane was thawed overnight and dispensed into 384-well plates ( 10μL/well ) with tapping and rotating to evenly coat. The plates were incubated for 1 h in a cell culture incubator at 37°C and 5% CO2 . A 2× PCB plate (containing all of the PCBs and metabolites in dose–response) was prepared in basal media and added, 25μL per well, to the Geltrex™ coated plates. On separate plates, cells were seeded 7,500 (iPSC- ECs) or 3,500 (HUVEC) cells/well. Cells were exposed to chemicals overnight at 37°C and 5% CO2 and stained with 3× concentration of calcein AM ( 25μL /well, 6μmol/L ) for 15 min before imaging. Images were captured at 4× magnification with the FITC filter (calcein AM). Images were analyzed with the angiogenesis module software within MetaXpress™ (Molecular Devices).
as §2

[3] = 0.00 µM control = 100.00, read-out: endo.cyto.24hr
[4] = 0.00 µM control = 100.00, read-out: endo.mito.24hr
[5] = 0.00 µM control = 100.00, read-out: endo.mitoint.24hr
[6] = 0.00 µM control = 100.00, read-out: endo.nma.24hr
[7] = 0.00 µM control = 100.00, read-out: endo.tc.24hrs
[8] = 0.00 µM control = 100.00, read-out: endo.mtl.18hr
[9] = 0.00 µM control = 100.00, read-out: endo.tlps.18hr
[10] = 0.00 µM control = 100.00, read-out: endo.tta.18hr
[11] = 0.00 µM control = 100.00, read-out: endo.ttl.18hr

Oc1ccccc1-c1ccc(Cl)cc1 [2'-OH PCB3]
viability at 0.01 µM [1, 3]: 99.2% | activity at 0.01 µM [1, 4]: 99.4% | activity at 0.01 µM [1, 5]: 117% | activity at 0.01 µM [1, 6]: 98.3% | viability at 0.01 µM [1, 7]: 99.2% | viability at 0.1 µM [1, 3]: 96.5% | activity at 0.1 µM [1, 4]: 97% | activity at 0.1 µM [1, 5]: 101% | activity at 0.1 µM [1, 6]: 98.8% | viability at 0.1 µM [1, 7]: 96.5% | viability at 1 µM [1, 3]: 100% | activity at 1 µM [1, 4]: 100% | activity at 1 µM [1, 5]: 108% | activity at 1 µM [1, 6]: 96.4% | viability at 1 µM [1, 7]: 100% | viability at 10 µM [1, 3]: 103% | activity at 10 µM [1, 4]: 103% | activity at 10 µM [1, 5]: 124% | activity at 10 µM [1, 6]: 97% | viability at 10 µM [1, 7]: 103% | viability at 100 µM [1, 3]: 57.8% | activity at 100 µM [1, 4]: 61.3% | activity at 100 µM [1, 5]: 87.3% | activity at 100 µM [1, 6]: 89.5% | viability at 100 µM [1, 7]: 87% | minimal effective concentration ([1]; read-out: endo.cyto.24hr POD): 44.3 µM | minimal effective concentration ([1]; read-out: endo.mito.24hr POD): 44.3 µM | minimal effective concentration ([1]; read-out: endo.mitoint.24hr POD): 100 µM | minimal effective concentration ([1]; read-out: endo.nma.24hr POD): 1.82 µM | minimal effective concentration ([1]; read-out: endo.tc.24hrs POD): 68.2 µM | activity at 0.01 µM [2, 8]: 114% | activity at 0.01 µM [2, 9]: 123% | activity at 0.01 µM [2, 10]: 120% | activity at 0.01 µM [2, 11]: 113% | activity at 0.1 µM [2, 8]: 106% | activity at 0.1 µM [2, 9]: 118% | activity at 0.1 µM [2, 10]: 103% | activity at 0.1 µM [2, 11]: 103% | activity at 1 µM [2, 8]: 100% | activity at 1 µM [2, 9]: 102% | activity at 1 µM [2, 10]: 99.3% | activity at 1 µM [2, 11]: 98.8% | activity at 10 µM [2, 8]: 91.1% | activity at 10 µM [2, 9]: 76.6% | activity at 10 µM [2, 10]: 98% | activity at 10 µM [2, 11]: 91.8% | activity at 100 µM [2, 8]: 54.3% | activity at 100 µM [2, 9]: 20.2% | activity at 100 µM [2, 10]: 18.5% | activity at 100 µM [2, 11]: 21.2% | minimal effective concentration ([2]; read-out: endo.mtl.18hr POD): 13.4 µM | minimal effective concentration ([2]; read-out: endo.tlps.18hr POD): 9.27 µM | minimal effective concentration ([2]; read-out: endo.tta.18hr POD): 29.9 µM | minimal effective concentration ([2]; read-out: endo.ttl.18hr POD): 23.1 µM
